Tested on: HLA-A1 supertype (A*101, A*2601, A*2902, A*3002)
Format: binding, human

Row | Sequence | # Alleles Bound
1 | KISPLMVAY (Influenza Virus) [SEQ ID NO: 266] | 2
2 | KMARLGKGY (Influenza Virus) [SEQ ID NO: 209] | 1
3 | KSCINRCFY (Influenza Virus) [SEQ ID NO: 89] | 1
4 | KSCLPACVY [SEQ ID NO: 113] | 2
5 | LTIGECPKY (Influenza Virus) [SEQ ID NO: 62] | 3
6 | LVSDGGPNLY (Influenza Virus) [SEQ ID NO: 213] | 3
7 | MLANIDLKY [SEQ ID NO: 210] | 3
8 | MLASIDLKY [SEQ ID NO: 211] | 4
9 | NMDRAVKLY (Influenza Virus) [SEQ ID NO: 68] | 3
10 | QWSQEPTMLY (Influenza Virus) [SEQ ID NO: 269] | 2
11 | RMFLAMITY (Influenza Virus) [SEQ ID NO: 208] | 2
12 | RVSKMGVDEY (Influenza Virus) [SEQ ID NO: 267] | 1
13 | SSLENFRAY (Influenza Virus) [SEQ ID NO: 166] | 1
14 | STVHYPKVY (Influenza Virus) [SEQ ID NO: 265] | 2
15 | TFEFTSFFY [SEQ ID NO: 212] | 3
16 | TIASVPAPRY (Influenza Virus) [SEQ ID NO: 140] | 2
17 | VSFDQNLDY (Influenza Virus) [SEQ ID NO: 87] | 2
18 | VSHCRATEY (Influenza Virus) [SEQ ID NO: 169] | 1
19 | VTRREVHIY [SEQ ID NO: 165] | 1
20 | WSQDPTMLY (Influenza Virus) [SEQ ID NO: 270] | 4
21 | YSHGTGTGY (Influenza Virus) [SEQ ID NO: 206] | 4
22 | YVDGFEPNGY (Influenza Virus) [SEQ ID NO: 167] | 2

Tested on: HLA-A24 supertype (A*2301, A*2402, A*2902, A*3002)
Format: binding, human

Row | Sequence | # Alleles Bound
23 | CFMYSDFHF (Influenza Virus) [SEQ ID NO: 190] | 3
24 | EWLKTRPIL (Influenza Virus) [SEQ ID NO: 75] | 2
25 | EYIMKGVYI (Influenza Virus) [SEQ ID NO: 192] | 2
26 | FFENKSETW (Influenza Virus) [SEQ ID NO: 193] | 2
27 | FFLTQGALL (Influenza Virus) [SEQ ID NO: 98] | 3
28 | FMQALQLLF (Influenza Virus) [SEQ ID NO: 159] | 3
29 | FYIQMCTEL [SEQ ID NO: 128] | 2
30 | FYRYGFVANF (Influenza Virus) [SEQ ID NO: 248] | 2
31 | HMMIWHSNL (Influenza Virus) [SEQ ID NO: 129] | 3
32 | HYPKVYKTYF (Influenza Virus) [SEQ ID NO: 296] | 2
33 | IFLARSALI (Influenza Virus) [SEQ ID NO: 130] | 2
34 | IYRRFKYGL (Influenza Virus) [SEQ ID NO: 85] | 2
35 | KFAAICTHL (Influenza Virus) [SEQ ID NO: 189] | 2
36 | KFEEIRWLI (Influenza Virus) [SEQ ID NO: 158] | 2
37 | LWILDRLFF (Influenza Virus) [SEQ ID NO: 84] | 3
38 | LYASPQLEGF (Influenza Virus) [SEQ ID NO: 194] | 2
39 | LYNKMEFEPF (Influenza Virus) [SEQ ID NO: 297] | 2
40 | MFLAMITYI [SEQ ID NO: 245] | 2
41 | MYQKCCNLF (Influenza Virus) [SEQ ID NO: 250] | 2
42 | MYQKCCTLF (Influenza Virus) [SEQ ID NO: 251] | 3
43 | RYTKTTYWW (Influenza Virus) [SEQ ID NO: 246] | 2
44 | SWPDGANINF (Influenza Virus) [SEQ ID NO: 101] | 2
45 | SWPDGANIPF (Influenza Virus) [SEQ ID NO: 100] | 2
46 | SYINRTGTF [SEQ ID NO: 247] | 3
47 | SYLIRALTL [SEQ ID NO: 244] | 2
48 | VFVIREPFI (Influenza Virus) [SEQ ID NO: 97] | 2
49 | WMACHSAAF [SEQ ID NO: 131] | 2
50 | WMMAMKYPI [SEQ ID NO: 295] | 2
51 | WWTSNSIIVF (Influenza Virus) [SEQ ID NO: 99] | 2

Tested on: HLA-B7 supertype (B*0702, B*3501, B*5101, B*5301, B*5401)
Format: binding, human

Row | Sequence | # Alleles Bound
52 | APFSKDNSI (Influenza Virus) [SEQ ID NO: 102] | 1
53 | APPEQSRMQF (Influenza Virus) [SEQ ID NO: 305] | 1
54 | APPKQSRMQF (Influenza Virus) [SEQ ID NO: 304] | 1
55 | APSPYNSRF (Influenza Virus) [SEQ ID NO: 103] | 2
56 | FPNEVGARIL (Influenza Virus) [SEQ ID NO: 302] | 5
57 | FPSSSYRRPV (Influenza Virus) [SEQ ID NO: 260] | 4
58 | GPALSINEL (Influenza Virus) [SEQ ID NO: 306] | 1
59 | GPATAQMAL (Influenza Virus) [SEQ ID NO: 257] | 2
60 | GPVHFRNQV (Influenza Virus) [SEQ ID NO: 301] | 1
61 | IPAEMLASI (Influenza Virus) [SEQ ID NO: 255] | 4
62 | IPKRNRSIL [SEQ ID NO: 259] | 1
63 | LPACVYGLAV (Influenza Virus) [SEQ ID NO: 133] | 4
64 | LPFHNVHPL [SEQ ID NO: 67] | 5
65 | LPRRSGAAGA [SEQ ID NO: 132] | 2
66 | MPAHGPAKSM (Influenza Virus) [SEQ ID NO: 258] | 4
67 | NPALRMKWM (Influenza Virus) [SEQ ID NO: 299] | 1
68 | NPRMFLAMI (Influenza Virus) [SEQ ID NO: 252] | 1
69 | RPCFWVELI [SEQ ID NO: 106] | 1
70 | RPWVSFNQNL (Influenza Virus) [SEQ ID NO: 105] | 1
71 | SPGMMMGMF [SEQ ID NO: 256] | 1
72 | SPQLEGFSA (Influenza Virus) [SEQ ID NO: 196] | 2
73 | SPYNSRFESV (Influenza Virus) [SEQ ID NO: 104] | 3
74 | VPASRYLTDM (Influenza Virus) [SEQ ID NO: 147] | 2
75 | YPKVYKTYF (Influenza Virus) [SEQ ID NO: 300] | 2

From patent US8865182B2 (priority 2009, dated 2014)
